This passage reports IC50 results from patent US11802111B2, “Cyclobutyl amide monoacylglycerol lipase modulators” (Janssen Pharmaceutica NV, priority 2020, dated 2023).

In general, pIC50 refers to the negative decadic logarithm of the IC50, by convention in mol/L.

pIC50: −log10 of the molar value.

The target in the assay is human MGL from HeLa cells (Homo sapiens (Human), UniProt Q99685). Put plainly: MGL in vitro activity assay ([glycerol-1,3-3H]-oleoyl glycerol hydrolysis, activated carbon filtration). The following applies: 300 nM [Glycerol-1,3-3H]-oleoyl glycerol, one hour. The format is biochemical. The method, then: The assay used to measure the in vitro activity of MGL is adapted from the assay used for another serine hydrolase (FAAH) described in Wilson et al., 2003 (A high-throughput-compatible assay for determining the activity of fatty acid amide hydrolase. Wilson S J, Lovenberg T W, Barbier A J. Anal Biochem. 2003 Jul. 15; 318(2):270-5). The assay consists of combining endogenously expressed MGL from HeLa cells with test compounds, adding [glycerol-1,3-^3H]-oleyl glycerol, incubating for one hour, and then measuring the amount of cleaved [1,3-^3H]-glycerol that passes through an activated carbon filter. The amount of cleaved, tritiated glycerol passing through the carbon filter is proportional to the activity of the MGL enzyme in a particular well/test condition.
Sequence of human MGL from HeLa cells (Q99685 whole entry): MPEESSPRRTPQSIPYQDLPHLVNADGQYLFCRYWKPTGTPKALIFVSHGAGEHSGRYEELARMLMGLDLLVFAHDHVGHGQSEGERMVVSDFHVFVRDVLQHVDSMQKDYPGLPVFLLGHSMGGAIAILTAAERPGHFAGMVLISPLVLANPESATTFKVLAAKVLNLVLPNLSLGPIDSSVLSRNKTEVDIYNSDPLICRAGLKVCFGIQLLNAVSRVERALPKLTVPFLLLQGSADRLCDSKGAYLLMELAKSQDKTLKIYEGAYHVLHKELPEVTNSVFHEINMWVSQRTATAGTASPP
Standard conditions for this assay combine 300 nM [Glycerol-1,3-^3H]-oleoyl glycerol with human MGL from HeLa cells and test compounds for one hour, after which the reaction is filtered through activated carbon and tritium is measured in the flow through. The test compound concentration in screening mode is 10 μM, while the highest compound concentration in IC50 assays is determined empirically. MGL is the predominant hydrolase in HeLa cells/cell homogenates.
On to `Cc1ccc(C2CCC3(C2)CN(C(=O)[C@H]2C[C@@](C)(O)C2)C3)cc1Cl` (mixture of isomers) [Example 71, (rac)-(6-(3-Chloro-4-methylphenyl)-2-azaspiro[3.4]octan-2-yl)((1s,3s)-3-hydroxy-3-methylcyclobutyl)methanone], for which the pIC50 was 7.82.
`Cc1cc(C2CCC3(C2)CN(C(=O)[C@H]2C[C@@](C)(O)C2)C3)ccc1OC(F)F` (mixture of isomers) [Example 72, (rac)-(6-(4-(Difluoromethoxy)-3-methylphenyl)-2-azaspiro[3.4]octan-2-yl)((1s,3s)-3-hydroxy-3-methylcyclobutyl)methanone] had a negative logarithm of the IC50 (pIC50) of 8.34. This pIC50 lies 0.52 log units higher than the previous one.
`Cc1cc(C2CC2)ccc1C1CCC2(C1)CN(C(=O)[C@H]1C[C@@](C)(O)C1)C2` (mixture of isomers) [Example 75, (rac)-(6-(4-Cyclopropyl-2-methylphenyl)-2-azaspiro[3.4]octan-2-yl)((1s,3s)-3-hydroxy-3-methylcyclobutyl)methanone] gave a negative-log IC50 (pIC50) of 8.62. Compared with the last compound, the pIC50 is 0.28 log units higher.
For `COc1ccc(C2CCC3(C2)CN(C(=O)[C@H]2C[C@@](C)(O)C2)C3)cc1C` (mixture of isomers) [Example 76, (rac)-((1s,3s)-3-Hydroxy-3-methylcyclobutyl)(6-(4-methoxy-3-methylphenyl)-2-azaspiro[3.4]octan-2-yl)methanone], the pIC50 is 7.29.
In the case of `Cc1cc(C2CCC3(C2)CN(C(=O)[C@H]2C[C@@](C)(O)C2)C3)cc(C(F)(F)F)c1` (mixture of isomers) [Example 77, (rac)-((1s,3s)-3-Hydroxy-3-methylcyclobutyl)(6-(3-methyl-5-(trifluoromethyl)phenyl)-2-azaspiro[3.4]octan-2-yl)methanone] it was 7.92; in that of `Cc1ccc(C(F)(F)F)cc1C1CCC2(C1)CN(C(=O)[C@H]1C[C@@](C)(O)C1)C2` (mixture of isomers) [Example 78, (rac)-((1s,3s)-3-Hydroxy-3-methylcyclobutyl)(6-(2-methyl-5-(trifluoromethyl)phenyl)-2-azaspiro[3.4]octan-2-yl)methanone], 7.96.
`COc1cccc(C2CCC3(C2)CN(C(=O)[C@H]2C[C@@](C)(O)C2)C3)c1F` (mixture of isomers) [Example 79, (rac)-(6-(2-Fluoro-3-methoxyphenyl)-2-azaspiro[3.4]octan-2-yl)((1s,3s)-3-hydroxy-3-methylcyclobutyl)methanone] showed a pIC50 of 6.62.
To `COc1cc(C)cc(C2CCC3(C2)CN(C(=O)[C@H]2C[C@@](C)(O)C2)C3)c1` (mixture of isomers) [Example 80, (rac)-((1s,3s)-3-Hydroxy-3-methylcyclobutyl)(6-(3-methoxy-5-methylphenyl)-2-azaspiro[3.4]octan-2-yl)methanone] belongs 6.98.
To `C[C@]1(O)C[C@@H](C(=O)N2CC3(CCC(c4cc(C5CC5)ccc4F)C3)C2)C1` (mixture of isomers) [Example 81, (rac)-(6-(5-Cyclopropyl-2-fluorophenyl)-2-azaspiro[3.4]octan-2-yl)((1s,3s)-3-hydroxy-3-methylcyclobutyl)methanone] belongs 7.70; to `Cc1ccc(C2CCC3(C2)CN(C(=O)[C@H]2C[C@@](C)(O)C2)C3)cc1OC(F)F` (mixture of isomers) [Example 82, (rac)-(6-(3-(Difluoromethoxy)-4-methylphenyl)-2-azaspiro[3.4]octan-2-yl)((1s,3s)-3-hydroxy-3-methylcyclobutyl)methanone], 7.51; to `Cc1cc(OC(F)F)ccc1C1CCC2(C1)CN(C(=O)[C@H]1C[C@@](C)(O)C1)C2` (mixture of isomers) [Example 83, (rac)-(6-(4-(Difluoromethoxy)-2-methylphenyl)-2-azaspiro[3.4]octan-2-yl)((1s,3s)-3-hydroxy-3-methylcyclobutyl)methanone], 7.60.
For the compound `Cc1cc(OC(F)F)cc(C2CCC3(C2)CN(C(=O)[C@H]2C[C@@](C)(O)C2)C3)c1` (mixture of isomers) [Example 84, (rac)-(6-(3-(Difluoromethoxy)-5-methylphenyl)-2-azaspiro[3.4]octan-2-yl)((1s,3s)-3-hydroxy-3-methylcyclobutyl)methanone], the negative logarithm of the IC50 (pIC50) was 7.33.
Compound `Cc1ccc(OC(F)F)cc1C1CCC2(C1)CN(C(=O)[C@H]1C[C@@](C)(O)C1)C2` (mixture of isomers) [Example 85, (rac)-(6-(5-(Difluoromethoxy)-2-methylphenyl)-2-azaspiro[3.4]octan-2-yl)((1s,3s)-3-hydroxy-3-methylcyclobutyl)methanone] had a pIC50 of 7.38.
Consider `COc1cc(Cl)cc(C2CCC3(C2)CN(C(=O)[C@H]2C[C@@](C)(O)C2)C3)c1` (mixture of isomers) [Example 86, (rac)-(6-(3-Chloro-5-methoxyphenyl)-2-azaspiro[3.4]octan-2-yl)((1s,3s)-3-hydroxy-3-methylcyclobutyl)methanone], for which the pIC50 was 7.38.
Turning to `COc1cc(C2CCC3(C2)CN(C(=O)[C@H]2C[C@@](C)(O)C2)C3)ccc1Cl` (mixture of isomers) [Example 87, (rac)-(6-(4-Chloro-3-methoxyphenyl)-2-azaspiro[3.4]octan-2-yl)((1s,3s)-3-hydroxy-3-methylcyclobutyl)methanone], the pIC50 was 6.98.
In the case of `CC(C)c1cccc(C2CCC3(C2)CN(C(=O)[C@H]2C[C@](O)(C(F)(F)F)C2)C3)c1` (mixture of isomers) [Example 88, (rac)-((1s,3s)-3-Hydroxy-3-(trifluoromethyl)cyclobutyl)(6-(3-isopropylphenyl)-2-azaspiro[3.4]octan-2-yl)methanone], the pIC50 was 7.23.
On to `CC(F)(F)c1cccc(C2CCC3(C2)CN(C(=O)[C@H]2C[C@@](C)(O)C2)C3)c1` (mixture of isomers) [Example 90, (rac)-(6-(3-(1,1-Difluoroethyl)phenyl)-2-azaspiro[3.4]octan-2-yl)((1s,3s)-3-hydroxy-3-methylcyclobutyl)methanone], for which the pIC50 is 7.19.
Compound `CCc1cccc(C2CCC3(C2)CN(C(=O)[C@H]2C[C@@](C)(O)C2)C3)c1` (mixture of isomers) [Example 91, (rac)-(6-(3-Ethylphenyl)-2-azaspiro[3.4]octan-2-yl)((1s,3s)-3-hydroxy-3-methylcyclobutyl)methanone] showed a negative-log IC50 (pIC50) of 7.24.
`Cc1ccc(C2CCC3(C2)CN(C(=O)[C@H]2C[C@@](C)(O)C2)C3)cc1C(F)F` (mixture of isomers) [Example 92, (rac)-(6-(3-(Difluoromethyl)-4-methylphenyl)-2-azaspiro[3.4]octan-2-yl)((1s,3s)-3-hydroxy-3-methylcyclobutyl)methanone]: the negative-log IC50 (pIC50) is 7.57.
The compound `Cc1cc(OC(F)(F)F)cc(C2CCC3(C2)CN(C(=O)[C@H]2C[C@@](C)(O)C2)C3)c1` (mixture of isomers) [Example 93, (rac)-((1s,3s)-3-Hydroxy-3-methylcyclobutyl)(6-(3-methyl-5-(trifluoromethoxy)phenyl)-2-azaspiro[3.4]octan-2-yl)methanone] gave a pIC50 of 7.70.
Turning to `Cc1cc(C(F)F)cc(C2CCC3(C2)CN(C(=O)[C@H]2C[C@@](C)(O)C2)C3)c1` (mixture of isomers) [Example 94, (rac)-(6-(3-(Difluoromethyl)-5-methylphenyl)-2-azaspiro[3.4]octan-2-yl)((1s,3s)-3-hydroxy-3-methylcyclobutyl)methanone], the pIC50 was 7.22.
Compound `COc1c(C)cccc1C1CCC2(C1)CN(C(=O)[C@H]1C[C@@](C)(O)C1)C2` (mixture of isomers) [Example 95, (rac)-((1s,3s)-3-Hydroxy-3-methylcyclobutyl)(6-(2-methoxy-3-methylphenyl)-2-azaspiro[3.4]octan-2-yl)methanone] had a pIC50 of 6.54.
For `CCc1ccc(C2CCC3(C2)CN(C(=O)[C@H]2C[C@@](C)(O)C2)C3)cc1` (mixture of isomers) [Example 96, (rac)-(6-(4-Ethylphenyl)-2-azaspiro[3.4]octan-2-yl)((1s,3s)-3-hydroxy-3-methylcyclobutyl)methanone], the pIC50 is 7.74.
`C[C@]1(O)C[C@@H](C(=O)N2CC3(CCC(c4ccn5nccc5c4)C3)C2)C1` (mixture of isomers) [Example 97, (rac)-((1s,3s)-3-Hydroxy-3-methylcyclobutyl)(6-(pyrazolo[1,5-a]pyridin-5-yl)-2-azaspiro[3.4]octan-2-yl)methanone] had a negative-log IC50 (pIC50) of 6.18.
With `Cc1cccc(C)c1C1CCC2(C1)CN(C(=O)[C@H]1C[C@@](C)(O)C1)C2` (mixture of isomers) [Example 98, (rac)-(6-(2,6-Dimethylphenyl)-2-azaspiro[3.4]octan-2-yl)((1s,3s)-3-hydroxy-3-methylcyclobutyl)methanone], the pIC50 is 6.53.
In the case of `Cn1cc(C2CCC3(C2)CN(C(=O)[C@H]2C[C@@](C)(O)C2)C3)cn1` (mixture of isomers) [Example 99, (rac)-((1s,3s)-3-Hydroxy-3-methylcyclobutyl)(6-(1-methyl-1H-pyrazol-4-yl)-2-azaspiro[3.4]octan-2-yl)methanone] it was 5.23.
In turn, `Cn1cc(C2CCC3(C2)CN(C(=O)[C@H]2C[C@@](C)(O)C2)C3)c(C(F)(F)F)n1` (mixture of isomers) [Example 100, (rac)-((1s,3s)-3-Hydroxy-3-methylcyclobutyl)(6-(1-methyl-3-(trifluoromethyl)-1H-pyrazol-4-yl)-2-azaspiro[3.4]octan-2-yl)methanone] gave a negative-log IC50 (pIC50) of 5.05.
On to `Cn1nc(C(F)(F)F)cc1C1CCC2(C1)CN(C(=O)[C@H]1C[C@@](C)(O)C1)C2` (mixture of isomers) [Example 101, (rac)-((1s,3s)-3-Hydroxy-3-methylcyclobutyl)(6-(1-methyl-3-(trifluoromethyl)-1H-pyrazol-5-yl)-2-azaspiro[3.4]octan-2-yl)methanone], for which the negative-log IC50 (pIC50) is 6.12. Against the preceding compound, the pIC50 is 1.07 log units higher.
